# Experimental data reported in ChEMBL document CHEMBL1122514, “Studies on synthesis and anticancer activity of selected N-(2-fluoroethyl)-N-nitrosoureas” (1984).
# “And” between values parts separate entries of the source, which are not always exact repeats. Identical values can stand only once.
# Assays:
# Mus musculus [1] = species on record: Mus musculus; test: Number of day-60 survivors; 1/10; type: functional
# Mus musculus [2] = species on record: Mus musculus; test: (§1) Optimal percentage of increased life span [(100 x MST treated mice / MST control mice) -100]; type: functional
# Mus musculus [3] = test: Compound is evaluated for maximally tolerated dose (MTD) against intraperitoneally implanted B16 melanoma cells in mice; type: functional
# Mus musculus [4] = test: Number of day-60 survivors at the optimal dose of 20 mg/kg; 9/10; type: functional
# Mus musculus [5] = test: Optimal percentage of increased life span [(100 x MST treated mice / MST control mice) -100] at the optimal dose of 20 mg/kg; d=Not Attained; type: functional, organism-based; design: dose 20 mg/kg
# Mus musculus [6] = test: Median survival time including day-60 survivors (MST), after post implantation at the optimal dose of 20 mg/kg; d=Not attained; type: functional, organism-based; design: dose 20 mg/kg
# Mus musculus [7] = species on record: Mus musculus; test: Number of day-60 survivors; 3/10; type: functional
# Mus musculus [8] = test: Compound is evaluated for antitumor activity against intraperitoneally implanted B16 melanoma cells in mice median survival time including day-60 survivors (MST); type: functional
# Mus musculus [9] = test: median survival time including day-60 survivors (MST), after post implantation at the optimal dose of 20 mg/kg; type: functional
# Mus musculus [10] = test: Optimal percentage of increased life span [(100 x MST treated mice / MST control mice) -100] at the optimal dose of 20 mg/kg; type: functional
# Mus musculus [11] = test: Number of day-60 survivors at the optimal dose of 20 mg/kg; 3/10; type: functional
# Mus musculus [12] = test: Number of day-60 survivors at the optimal dose of 5 mg/kg; 3/10; type: functional
# Mus musculus [13] = test: Optimal percentage of increased life span [(100 x MST treated mice / MST control mice) -100] at the optimal dose of 5 mg/kg; type: functional
# Mus musculus [14] = test: median survival time including day-60 survivors (MST), after post implantation at the optimal dose of 5 mg/kg; type: functional
# Mus musculus [15] = test: Median survival time including day-60 survivors (MST), after post implantation at the optimal dose of 10 mg/kg; d=Not attained; type: functional, organism-based; design: dose 10 mg/kg
# Mus musculus [16] = species on record: Mus musculus; test: Number of day-60 survivors; 4/10; type: functional
# Mus musculus [17] = test: Compound is evaluated for antitumor activity against intraperitoneally implanted B16 melanoma cells in mice median survival time including day-60 survivors (MST); f=Not attained; type: functional, organism-based
# Mus musculus [18] = species on record: Mus musculus; test: Optimal percentage of increased life span [(100 x MST treated mice / MST control mice) -100]; f=Not Attained; type: functional, organism-based
# Mus musculus [19] = test: Number of day-60 survivors at the optimal dose of 10 mg/kg; 7/10; type: functional
# Mus musculus [20] = test: Optimal percentage of increased life span [(100 x MST treated mice / MST control mice) -100] at the optimal dose of 10 mg/kg; d=Not Attained; type: functional, organism-based; design: dose 10 mg/kg
# Mus musculus [21] = species on record: Mus musculus; test: optimal percentage of increased life span [(100 x MST treated mice / MST control mice) -100]; type: functional
# Mus musculus [22] = species on record: Mus musculus; test: Number of day-60 survivors; 5/10; type: functional
# Mus musculus [23] = test: Number of day-60 survivors at the optimal dose of 6.25 mg/kg; 9/10; type: functional
# Mus musculus [24] = test: Optimal percentage of increased life span [(100 x MST treated mice / MST control mice) -100] at the optimal dose of 6.25 mg/kg; d=Not Attained; type: functional, organism-based; design: dose 6.25 mg/kg
# Mus musculus [25] = test: Median survival time including day-60 survivors (MST), after post implantation at the optimal dose of 6.25 mg/kg; d=Not attained; type: functional, organism-based; design: dose 6.25 mg/kg
# Mus musculus [26] = test: Optimal percentage of increased life span [(100 x MST treated mice / MST control mice) -100] at the optimal dose of 8 mg/kg; d=Not Attained; type: functional, organism-based; design: dose 8 mg/kg
# Mus musculus [27] = test: Number of day-60 survivors at the optimal dose of 8 mg/kg; 8/10; type: functional
# Mus musculus [28] = test: median survival time including day-60 survivors (MST), after post implantation at the optimal dose of 8 mg/kg; d=Not Attained; type: functional, organism-based; design: dose 8 mg/kg
# Mus musculus [29] = test: median survival time including day-60 survivors (MST), after post implantation at the optimal dose of 32 mg/kg; type: functional
# Mus musculus [30] = test: Optimal percentage of increased life span [(100 x MST treated mice / MST control mice) -100] at the optimal dose of 32 mg/kg; type: functional
# Mus musculus [31] = test: Number of day-60 survivors at the optimal dose of 32 mg/kg; 1/10; type: functional
# Mus musculus [32] = species on record: Mus musculus; test: Number of day-60 survivors; 0/10; type: functional
# Mus musculus [33] = test: Number of day-60 survivors at the optimal dose of 20 mg/kg; 6/10; type: functional
# Mus musculus [34] = test: Median survival time including day-60 survivors (MST), after post implantation at the optimal dose of 5 mg/kg; type: functional
# Mus musculus [35] = species on record: Mus musculus; test: as §1; type: functional; remark: listed apart in the source
# Mus musculus [36] = species on record: Mus musculus; test: Number of day-60 survivors; 2/10; type: functional
compound,measurement,setting,value
O=NN(CCF)C(=O)NC1CCC(=O)NC1=O (centres undefined),Survivors,Mus musculus [1],1
same,ILS,Mus musculus [2],109% and 133%
same,MTD,Mus musculus [3],60 mg/kg
same,Survivors,Mus musculus [4],9
same,ILS,Mus musculus [5],Not attained
same,MST,Mus musculus [6],Not attained
same,Survivors,Mus musculus [7],3
same,MST,Mus musculus [8],45.3 days and 40.3 days
O=NN(CCF)C(=O)NC1CCCCC1,Survivors,Mus musculus [1],1
same,ILS,Mus musculus [2],71%
same,MTD,Mus musculus [3],60 mg/kg
same,MST,Mus musculus [9],44 days
same,ILS at 20 mg/kg,Mus musculus [10],129%
same,Survivors,Mus musculus [11],3
same,MST,Mus musculus [8],37 days
O=NN(CCCl)C(=O)NC1C(O)CCCC1O (centres undefined),Survivors,Mus musculus [12],3
same,ILS at 5 mg/kg,Mus musculus [13],73%
same,MST,Mus musculus [14],33.3 days
O=NN(CCF)C(=O)NC1C(O)CCCC1O (centres undefined),MTD,Mus musculus [3],60 mg/kg
same,MST,Mus musculus [15],Not attained
same,Survivors,Mus musculus [16],4
same,MST,Mus musculus [17],Not attained
same,ILS,Mus musculus [18],Not attained
same,MST,Mus musculus [8],57 days
same,Survivors,Mus musculus [19],7
same,ILS,Mus musculus [20],Not attained
same,ILS,Mus musculus [21],163%
same,Survivors,Mus musculus [22],5
O=NN(CCCl)C(=O)NCCO [ELMUSTINE],Survivors,Mus musculus [23],9
same,ILS,Mus musculus [24],Not attained
same,MST,Mus musculus [25],Not attained
O=NN(CCCl)C(=O)NC1CCC(=O)NC1=O (centres undefined),ILS,Mus musculus [26],Not attained
same,Survivors,Mus musculus [27],8
same,MST,Mus musculus [28],Not attained
O=NN(CCCl)C(=O)NC1CCCCC1 [LOMUSTINE],MST,Mus musculus [29],32 days
same,ILS at 32 mg/kg,Mus musculus [30],66%
same,Survivors,Mus musculus [31],1
O=NN(CCF)C(=O)NC1CCCCC1O (centres undefined),ILS,Mus musculus [2],122% and 109%
same,MTD,Mus musculus [3],60 mg/kg
same,ILS,Mus musculus [5],Not attained
same,MST,Mus musculus [6],Not attained
same,Survivors,Mus musculus [32],0
same,Survivors,Mus musculus [7],3
same,MST,Mus musculus [8],48 days and 35.8 days
same,Survivors,Mus musculus [33],6
O=NN(CCF)C(=O)NCCO,ILS,Mus musculus [2],150%
same,MTD,Mus musculus [3],60 mg/kg
same,Survivors,Mus musculus [12],3
same,MST,Mus musculus [34],45.8 days
same,Survivors,Mus musculus [7],3
same,MST,Mus musculus [8],50 days and 42.8 days
same,ILS at 5 mg/kg,Mus musculus [13],138%
same,ILS,Mus musculus [21],131%
O=NN(CCF)C(=O)NC1C(O)C(O)OC(CO)C1O (centres undefined),ILS,Mus musculus [2],110%
same,MTD,Mus musculus [3],60 mg/kg
same,ILS,Mus musculus [35],131%
same,Survivors,Mus musculus [36],2
same,Survivors,Mus musculus [7],3
same,MST,Mus musculus [8],50 days and 36 days
